From the NIST ThermoML archive (doi:10.1016/j.tca.2015.08.013)

Settings: for surface tension liquid-gas: Drop volume; for mass density / kinematic viscosity / speed of sound / vapor or sublimation pressure: Liquid; for mass density: Vibrating tube method; for kinematic viscosity / speed of sound: 101.33 kPa; for kinematic viscosity: Capillary tube (Ostwald / Ubbelohde) method; for speed of sound: Sing-around technique in a fixed-path interferometer; for vapor or sublimation pressure: Ebulliometric method (Recirculating still)

Cc1ccc(C)o1 [2,5-dimethylfuran]
Settings	kinematic viscosity [m2/s]	speed of sound [m/s]	surface tension liquid-gas [mN/m]	vapor or sublimation pressure [kPa]
278.15 K	6.7e-07	1281.9	27.5	–
280.65 K	6.5e-07	1271.1	27.19	–
283.15 K	6.34e-07	1260.2	26.86	–
283.16 K	–	–	–	3.015
285.65 K	6.12e-07	1249.2	26.57	–
288.15 K	5.95e-07	1238.3	26.22	–
288.36 K	–	–	–	4.037
290.65 K	5.79e-07	1227.5	25.91	4.575
293.15 K	5.63e-07	1216.5	25.54	–
293.16 K	–	–	–	5.195
295.65 K	5.48e-07	1206.3	25.3	–
298.15 K	5.34e-07	1194.9	25	–
298.25 K	–	–	–	6.75
300.65 K	5.2e-07	1185	24.67	–
302.52 K	–	–	–	8.37
303.15 K	5.04e-07	1173.3	24.33	–
305.65 K	4.95e-07	1163.8	24.02	–
308.15 K	4.83e-07	1151.9	23.7	–
309.17 K	–	–	–	11.59
310.65 K	4.71e-07	1142.5	23.34	–
313.15 K	–	–	23.01	–

Settings	mass density [kg/m3]
278.15 K, 99 kPa	917.53
280.65 K, 99 kPa	914.899
283.15 K, 99 kPa	912.247
283.15 K, 100 kPa	912.25
283.15 K, 2500 kPa	914.37
283.15 K, 5000 kPa	916.47
283.15 K, 7500 kPa	918.52
283.15 K, 10000 kPa	920.53
283.15 K, 20000 kPa	928.2
283.15 K, 30000 kPa	935.24
283.15 K, 40000 kPa	941.89
283.15 K, 50000 kPa	948.12
283.15 K, 60000 kPa	953.98
285.65 K, 99 kPa	909.614
288.15 K, 99 kPa	906.988
288.15 K, 100 kPa	906.99
288.15 K, 2500 kPa	909.13
288.15 K, 5000 kPa	911.29
288.15 K, 7500 kPa	913.42
288.15 K, 10000 kPa	915.49
288.15 K, 20000 kPa	923.34
288.15 K, 30000 kPa	930.62
288.15 K, 40000 kPa	937.41
288.15 K, 50000 kPa	943.72
288.15 K, 60000 kPa	949.78
290.65 K, 99 kPa	904.299
293.15 K, 99 kPa	901.636
293.15 K, 100 kPa	901.64
293.15 K, 2500 kPa	903.82
293.15 K, 5000 kPa	906.07
293.15 K, 7500 kPa	908.26
293.15 K, 10000 kPa	910.4
293.15 K, 20000 kPa	918.5
293.15 K, 30000 kPa	925.97
293.15 K, 40000 kPa	932.94
293.15 K, 50000 kPa	939.57
293.15 K, 60000 kPa	945.6
295.65 K, 99 kPa	898.951
298.15 K, 99 kPa	896.285
298.15 K, 100 kPa	896.29
298.15 K, 2500 kPa	898.6
298.15 K, 5000 kPa	900.94
298.15 K, 7500 kPa	903.16
298.15 K, 10000 kPa	905.39
298.15 K, 20000 kPa	913.73
298.15 K, 30000 kPa	921.4
298.15 K, 40000 kPa	928.44
298.15 K, 50000 kPa	935.19
298.15 K, 60000 kPa	941.44
300.65 K, 99 kPa	893.569
303.15 K, 99 kPa	890.898
303.15 K, 100 kPa	890.9
303.15 K, 2500 kPa	893.25
303.15 K, 5000 kPa	895.65
303.15 K, 7500 kPa	897.97
303.15 K, 10000 kPa	900.25
303.15 K, 20000 kPa	908.83
303.15 K, 30000 kPa	916.74
303.15 K, 40000 kPa	924.06
303.15 K, 50000 kPa	930.89
303.15 K, 60000 kPa	937.27
305.65 K, 99 kPa	888.151
308.15 K, 99 kPa	885.447
308.15 K, 100 kPa	885.45
308.15 K, 2500 kPa	887.9
308.15 K, 5000 kPa	890.36
308.15 K, 7500 kPa	892.78
308.15 K, 10000 kPa	895.14
308.15 K, 20000 kPa	903.98
308.15 K, 30000 kPa	912.1
308.15 K, 40000 kPa	919.56
308.15 K, 50000 kPa	926.54
308.15 K, 60000 kPa	933.08
310.65 K, 99 kPa	882.693
313.15 K, 99 kPa	879.927
